Earlier results in patent US8778892B2, “Compounds and methods for treatment of solid tumors” (B & G Partners, LLC, priority 2008, dated 2014).

Target: CD44 (Homo sapiens, UniProt P16070)
Conditions: intact cells

CD44, sequence (P16070 21-742, species assumed): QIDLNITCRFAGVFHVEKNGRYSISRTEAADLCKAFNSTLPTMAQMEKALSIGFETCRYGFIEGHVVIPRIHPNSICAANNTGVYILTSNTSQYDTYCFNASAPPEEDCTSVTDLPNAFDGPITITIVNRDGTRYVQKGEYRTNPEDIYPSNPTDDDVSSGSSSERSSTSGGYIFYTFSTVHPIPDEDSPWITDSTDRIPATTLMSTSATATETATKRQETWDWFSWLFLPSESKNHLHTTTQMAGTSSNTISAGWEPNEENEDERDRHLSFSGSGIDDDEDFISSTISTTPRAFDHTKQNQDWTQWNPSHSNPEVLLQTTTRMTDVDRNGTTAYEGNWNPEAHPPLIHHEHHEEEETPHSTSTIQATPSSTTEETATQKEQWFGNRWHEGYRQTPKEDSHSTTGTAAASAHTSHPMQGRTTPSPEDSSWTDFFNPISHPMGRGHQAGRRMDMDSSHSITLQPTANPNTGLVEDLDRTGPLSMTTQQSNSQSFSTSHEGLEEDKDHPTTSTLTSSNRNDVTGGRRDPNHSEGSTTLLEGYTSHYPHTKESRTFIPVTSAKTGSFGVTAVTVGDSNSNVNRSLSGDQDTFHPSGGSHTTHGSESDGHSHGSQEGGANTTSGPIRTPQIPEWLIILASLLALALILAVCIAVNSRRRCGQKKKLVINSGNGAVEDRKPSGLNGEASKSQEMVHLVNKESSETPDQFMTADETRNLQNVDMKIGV

For chondroitin sulfate, the “capacity to compete with hyaluronan for binding” value is listed as “little capacity to compete”.

In the case of heparan sulfate, the “capacity to compete with hyaluronan for binding” value is given as “little capacity to compete”.
